# In PMC12029662, “Cytotoxicity Comparison of ^99mTc-Labeled Peptide Antagonist and Agonist Targeting the SSTR2 Receptor in AR42J Cells” (Molecules, 2025):
# Like-named read-outs stand apart in the source and are kept apart here. Positions of bridges follow the written chain, without caps; N, C: chain ends. Non-standard residues stand in square brackets, D forms with d. dPhe(4-NHCONH2) = NC(=O)Nc1ccc(C[C@@H](N)C(=O)O)cc1; Phe(4-Cl) = N[C@@H](Cc1ccc(Cl)cc1)C(=O)O; N4 = N4 chelator for 99mTc
# Assays:
# SSTR2 = molecular target: T1, SSTR2 (Rattus norvegicus, UniProt P30680); test: Saturation binding affinity assay on AR-42-J cells; details: for Specific binding on AR42J cells, antagonist compared with agonist: specific = total minus nonspecific binding, Figure 2
# T1 construct: AR-42-J cells were seeded in 6-well plates; host or cells: AR-42-J (AR42J) rat pancreatic tumour cells, intact, no transfection described
# T1 sequence (P30680 whole entry): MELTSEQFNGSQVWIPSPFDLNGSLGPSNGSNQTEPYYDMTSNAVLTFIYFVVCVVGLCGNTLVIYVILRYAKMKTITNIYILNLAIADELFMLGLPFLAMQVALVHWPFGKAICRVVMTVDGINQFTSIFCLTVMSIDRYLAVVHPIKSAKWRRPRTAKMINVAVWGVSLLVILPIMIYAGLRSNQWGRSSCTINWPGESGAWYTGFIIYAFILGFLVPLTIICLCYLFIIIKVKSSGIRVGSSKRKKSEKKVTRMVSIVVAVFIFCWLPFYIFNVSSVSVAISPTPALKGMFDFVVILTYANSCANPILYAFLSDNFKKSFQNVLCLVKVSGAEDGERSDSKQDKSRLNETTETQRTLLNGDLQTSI
# Description: Figure 2 illustrates the relationship between specific binding and the concentration of the radioconjugates. In Supplementary Materials Figure S1, we included experimental data on total binding and non-specific binding in the presence of a 2000-fold excess of octreotide, which allowed us to determine specific binding.
# Following incubation, the cells were washed with PBS, collected into tubes and then lysed twice using 800 μL of 1 M NaOH (for 12-well plate) and 1.5 mL of 1 M NaOH (for 6-well plates). The lysates were collected in separate tubes and radioactivity was measured using Wizard2 gamma counter, PerkinElmer, Waltham, MA, USA. The lysates were transferred to separate tubes and radioactivity was quantified using Wizard2 gamma counter.
# AR42J cells [1] = test: Cytotoxicity studies (MTS assay)
# Description: The properties of agonist octreotide conjugates labeled with the radionuclide ^111In have been studied in several works, primarily for imaging but also for Auger electron therapy. The ^111In not only emits gamma quanta but also produces 7.4 Auger electrons. […] In a few works, Maecke et al. also studied ^111In radioconjugates with SSTR receptor antagonists, but these studies were focused on tumor imaging and the therapeutic effect was not investigated. […] They are easily repairable and the cells could continue to divide.
# Figure 4 Cytotoxicity of ^99mTc-labeled SSTR2 receptor agonist TEKTROTYD (left graph) and antagonist TECANT-1 (right graph) for AR42J cells. The data results are expressed in mean ± standard deviation. One-way ANOVA analysis was used for multiple group comparisons, followed by Tukey’s test.
# A cytotoxicity assay was performed using the AR42J cell line. A total of 10^4 cells were seeded in 96-well plate and incubated overnight at 37 °C in a 5% CO2 atmosphere. The following day, the medium was removed and the cells were treated with radiocompounds at concentrations of 100, 50, 25, 12.5 MBq/mL The cells were then incubated for 24, 48, and 72 h. At each specified time point, 20 µL of MTS reagent was added to cells and incubated for 2 h. Absorbance at 490 nm was measured to estimate the percentage of cell metabolic activity. […] The average absorbance of these control wells was subtracted from the absorbance of wells containing treated cells.
# AR42J cells [2] = test: Internalization assay (membrane-bound vs internalized fraction); assay type: cell-based, rat; details: Figure 3
# Description: Briefly, AR42J cells (7 × 10^5 cells/well) were seeded in 6-well plates and incubated for 2 days. Following this incubation, the cells were washed twice with cold PBS and then treated with 5 nM of tested compounds. To avoid internalization, the cells were incubated at 4 °C for 1 h. Non-specific binding was assessed by adding a 1000-fold molar excess of unlabeled octreotide acetate. After incubation, unbound fraction was collected in tubes, and the cells were washed twice with 1 mL of cold PBS. Fresh medium was then added, and the cells were incubated at 37 °C for up to 24 h. At each time interval, the second medium portion was collected, and cells were washed twice with 1 mL of PBS. Next, the membrane-bound fraction was collected using 0.05 M glycine–HCl buffer (pH 2.8). Finally, the internalized fraction was obtained by lysing the cells with 1.5 mL of 1 M NaOH.
# [3] = reported in multiple studies; cited from earlier work
# [4] = AR42J cells, MTS, 12.5–100 MBq/mL, Figure 4
substance,measurement,setting,value
N4-p-Cl-Phe-cyclo(D-Cys-Tyr-DAph(Cbm)-Lys-Thr-Cys)-D-Tyr-NH2 (disulfide) [TECANT-1],"Specific binding on AR42J cells, antagonist compared with agonist",SSTR2,significantly greater
same,Cell viability after 72 h compared with earlier time points,AR42J cells [1]; [4],no such effect was observed
^99mTc-N4-p-Cl-Phe-cyclo(D-Cys-Tyr-D-4-amino-Phe(carbamoyl)-Lys-Thr-Cys)D-Tyr- NH2 (disulfide) [^99mTc-TECANT-1],"Specific binding on AR42J cells, antagonist compared with agonist",SSTR2,greater binding
same,Cellular localization in words,AR42J cells [2],most of the radioconjugate is accumulated in the cell membrane
same,Cytotoxicity in words,AR42J cells [1],significantly enhanced cytotoxic effect
same,Toxicity of antagonist relative to agonist,"AR42J cells [1]; AR42J cells, MTS, 12.5–100 MBq/mL, 24, 48, 72 h, Figure 4",two to three times higher
^99mTc-N4-p-Cl-Phe-cyclo(D-Cys-Tyr-D-4-amino-Phe(carbamoyl)-Lys-Thr-Cys)D-Tyr- NH2 (disulfide) ({99mTc-N4}-[Phe(4-Cl)][dC]Y[dPhe(4-NHCONH2)]KTC[dY]-NH2; disulfide 2-7; also: 99mTc complex via N4 chelator) [^99mTc-TECANT-1],Kd,"SSTR2; saturation curves, AR42J cells, 2 h incubation with 0.004–20 nM radiopeptide, non-specific binding with 2000-fold excess of octreotide, gamma counter",1.5 nM
^99mTc-EDDA/HYNIC-3Tyr-octreotide (disulfide) [^99mTc-TEKTROTYD],Cytotoxicity in words,"AR42J cells [1]; AR42J cells, MTS assay",slight cytotoxicity
same,Cell viability after 72 h compared with earlier time points,AR42J cells [1]; [4],significant increase in cell viability observed after 72 h
same,"Stability in biological fluids, including human serum",[3],high stability
